# Where two headings read alike, the source gives them in different places.
# What was measured:
# [1] = tested on: murine Swiss albino fibroblast (3T3) cell line; test: Cell viability, NRU assay, 3T3; assay type: cell-based; settings: Mus musculus, 24 h incubation, NRU endpoint
# Method: (§1) Two different endpoints, 3-(4,5-dimethyl-2-thiazolyl)-2,5-diphenyltetrazolium bromide (MTT) and neutral red uptake (NRU), were used to assess differences in cell-induced cytotoxicity. […] In addition, NRU evaluates the interaction of these drugs with the plasmatic membrane. Cell responses were determined from the MTT [16] and NRU [17] assays, using the two proposed cell lines. Cytotoxicity assays were performed at concentrations equal to 80 and 250 µg/mL. The IC50 value, referring to the half-maximal inhibitory concentration, was determined as a key parameter in cytotoxicity studies (Table 1). It plays a crucial role in evaluating cell viability and assessing cellular responses to various drugs or toxins. For cases where IC50 values were below 80 µg/mL, additional studies at lower concentrations were conducted to accurately determine these values. […] The selectivity index (SI), used as a measurement of action against the tumor cell line in comparison with a normal cell line, was also included.
# (§2) • In Vitro Assay Using Human Erythrocytes • - Acquisition and Extraction of the Erythrocytes Human blood samples were obtained from the Banc de Sang i Teixits de Barcelona (Spain) from the Catalan Department of Health. Blood was deposited in tubes with the anticoagulant EDTA-K3. Blood samples were centrifuged at 3000 rpm and 4 °C for 10 min (Megafuge 2.0 R. Heraeus Instruments, Hanau, Germany) to induce sedimentation. Plasma was extracted with a Pasteur pipette. Next, the residual pellet was washed with PBS at pH 7.4. This procedure was repeated three times to remove residual leukocytes and platelets and to concentrate the erythrocytes. Following the last wash, the erythrocyte suspension was diluted (1:1) in PBS at pH 7.4 to obtain a suitable erythrocyte suspension (cell density of 8 × 10^9 cell/mL). • - Hemolysis Assay The hemolysis assay determined the capability of different compounds to induce the hemolysis of the erythrocyte membrane. Stock solutions of each compound at 1 mg/mL in PBS at pH 7.4 were prepared. Different volumes (10–80 μL) were placed in polystyrene tubes, and an aliquot of 25 µL of the erythrocyte suspensions was added to each tube. The final volume was 1 mL. The tubes were incubated at room temperature under rotatory conditions. Then, the tubes were centrifuged at 10,000 rpm for 5 min. The supernatants’ absorbance at 540 nm (Shimadzu UV-160A, Shimadzu, Duisburg, Germany) was compared with that of the positive (erythrocytes hemolyzed with distilled water) and negative (erythrocyte suspension in PBS at pH 7.4) controls. The degree of hemolysis was determined using the following equation: Hemolysis (%) = 100 × (Abs − Abs0)/(Abs100 − Abs0) where Abs, Abs0, and Abs100 are the absorbance of the test samples, of the suspension treated with isotonic phosphate–buffered saline (PBS), and of the suspension of complete hemolysis treated with distilled water, respectively. • In Vitro Essay Using Cell Cultures The murine Swiss albino fibroblasts (3T3) and the squamous cell carcinoma (A431) cell lines were obtained from Celltec UB. Cells were grown in DMEM medium (4.5 g/L glucose) supplemented with 10% (v/v) FBS, 2 mM L-glutamine, 100 U/mL penicillin, and 100 µg/mL streptomycin at 37 °C with 5% CO2. Cells were routinely cultured in 75 cm^2 culture flasks and were trypsinized using trypsin–EDTA when the cells reached approximately 80% confluence. The trypan blue assay, which allows for the direct identification and enumeration of the live (unstained) and dead (blue) cells in the cell population, was used to evaluate the viability of the cells in the cell suspension obtained. • - Cell Viability Assays Cell lines of 3T3 (1 × 10^5 cells/mL) and A431 (5 × 10^4 cells/mL) were grown at defined densities in the 60 central wells of a 96-well plate. The cells were incubated for 24 h in 5% CO2 at 37 °C. […]
# [2] = tested on: murine Swiss albino fibroblast (3T3) cell line; test: Cell viability, MTT assay, 3T3; assay type: cell-based; settings: Mus musculus, 24 h, 24 h incubation, MTT endpoint
# Method: as §1, §2
# [3] = tested on: A431 cell line (squamous cell carcinoma); test: Cell viability, MTT assay, A431; assay type: cell-based; settings: for IC50: Homo sapiens; for SI (MTT), selectivity index: SI = IC50 (3T3)/IC50 (A431); for selective cytotoxicity, A431 in comparison with 3T3 cells: lower IC50 for A431 than 3T3; for SI250, pseudo-selectivity index (MTT): 250 µg/mL, 24 h, A431 vs 3T3, MTT
# Method: as §1, §2
# [4] = tested on: A431 cell line (squamous cell carcinoma); test: Cell viability, NRU assay, A431; assay type: cell-based, human; settings: for IC50: Homo sapiens, A-431, 24 h, 24 h incubation, NRU endpoint, A431; for SI250, pseudo-selectivity index (NRU): 250 µg/mL, 24 h, A431 vs 3T3, NRU
# Method: as §1, §2
# human erythrocytes = test: Hemolysis assay with human erythrocytes; assay type: cell-based; settings: from 10 to 80 µg/mL
# Method: (§3) In this context, non-hemolytic compounds are essential, as they enhance the safety and efficacy of lactam-based drugs by reducing adverse effects while maintaining their antitumor activity. In accordance with EU regulations (ISO 10993-4), the assessment of the biological compatibility of new compounds that may come into contact with the blood necessitates in vitro hemocompatibility evaluations. In this study, the extent of hemolysis induced by the different compounds was assessed by incubating them with an erythrocyte suspension. The hemolytic response of compounds 1–10 was evaluated at two concentrations (10 and 80 µg/mL), the results of which are presented in Figure 3.
# as §2, with “°C. Then, the spent medium was removed, and the cells were incubated for 24 h, with their corresponding compound solutions (1 mg/mL) previously diluted in a minimum amount of DMF (dimethylformamide) and then in DMEM medium supplemented with 5% FBS (100 µL) at the required concentration range (80 or 250 µg/mL).” for “°C.”
# [5] = Hemolysis assay with human erythrocytes; assay type: cell-based; settings: human, washed human erythrocyte suspension, pH 7.4, read-out: degree of hemolysis
# Method: as §3
# as §2, with “°C. Then, the spent medium was removed, and the cells were incubated for 24 h, with their corresponding compound solutions (1 mg/mL) previously diluted in a minimum amount of DMF (dimethylformamide) and then in DMEM medium supplemented with 5% FBS (100 µL) at the required concentration range (80 or 250 µg/mL).” for “°C.”
# Zebrafish = settings: cited from earlier work
# [6] = tested on: squamous carcinoma cells (A431) in comparison with the fibroblast (3T3) cell line; design: method as in PMID 38731527; settings: cited from earlier work
# [7] = A-431, 24 h, 24 h incubation, MTT endpoint, A431, read-out: IC50 (MTT) A431
# [8] = A-431, A431 and 3T3, MTT and NRU, summarised in text, read-out: IC50 values
SMILES,IC50 [1],IC50 [2],"IC50 [3, 7]","IC50 [3, 8]",IC50 [4],change of hemolytic response as concentration increased (human erythrocytes),hemolysis at 10 µg/mL [5],"SI (MTT), selectivity index [3]","selective cytotoxicity, A431 in comparison with 3T3 cells [3]","SI250, pseudo-selectivity index (NRU) [4]","SI250, pseudo-selectivity index (MTT) [3]",acute toxicity (Zebrafish; Zebrafish embryos),IC50 (lowest values among five products) [6],"SI (NRU), selectivity index ([4]; SI = IC50 (3T3)/IC50 (A431), NRU)",acute toxicity (Zebrafish; Zebrafish),hemolysis at 80 µg/mL ([5]; 80 µg/mL)
C=C(Br)CN1CC(C)C(Cl)(Cl)C1=O (stereo not shown) [Compound 5],250 µg/mL,> 250 µg/mL,250 ± 1.32 µg/mL,> 250 µg/mL,> 250 µg/mL,,,,,,,,,,,
CC(C)(C)N1C(=O)[C@@H](Cl)[C@@H]2CCCC[C@@H]21 [Compound 8],> 250 µg/mL,> 250 µg/mL,250 ± 1.78 µg/mL,> 250 µg/mL,> 250 µg/mL,doubled,0.1%,>1.0,,,,,,,,
CC1CN(C(C)(C)C)C(=O)C1(Cl)Cl (stereo not shown) [Compound 4],> 250 µg/mL,> 250 µg/mL,> 250 µg/mL,,> 250 µg/mL,remained stable,,,,,,,,,,
O=C1N(Cc2ccccc2)[C@H]2CCC[C@H](C2)C1(Cl)Cl [Compound 10],> 250 µg/mL,> 250 µg/mL,238.3 ± 1.56 µg/mL,,> 250 µg/mL,remained stable,0.02%,,some selective cytotoxicity,highest SI250 values,,,,,,
CC(C)(C)N1CC(C)(C)C(Cl)(Cl)C1=O [Compound 7],> 250 µg/mL,> 250 µg/mL,230 ± 2.54 µg/mL,,> 250 µg/mL,remained stable,,>1.08,some selective cytotoxicity,,above 1.5,,,,,
CC(C)(C)N1C(=O)[C@@H](Cl)[C@@H]2[C@H](Cl)CCC[C@@H]21 [Compound 3],> 250 µg/mL,183 ± 3.11 µg/mL,250 ± 2.11 µg/mL,,> 250 µg/mL,doubled,0.1%,,,highest SI250 values,,,,,,
COc1cccc2c1C(=O)c1c(O)c3c(c(O)c1C2=O)C[C@@](O)(C(=O)CO)C[C@@H]3O[C@H]1C[C@H](N)[C@H](O)[C@H](C)O1 [doxorubicin],,,,,,,,,,,,5.6 µg/mL,,,,
CC(C)(C)N1CC(CCl)C(Cl)(Cl)C1=O (stereo not shown) [Compound 2],> 250 µg/mL,> 250 µg/mL,> 250 µg/mL,,232 ± 4.23 µg/mL,three-,0.02%,,,highest SI250 values,,,100 to 250 µg/mL,>1.08,,
CC1CN(C2CCC(=O)CC2)C(=O)C1(Cl)Cl (stereo not shown) [Compound 6],> 250 µg/mL,> 250 µg/mL,> 250 µg/mL,,> 250 µg/mL,remained stable,,,,highest SI250 values,,,,,,
CC(=O)O[C@H]1C(=O)[C@@]2(C)[C@H]([C@H](OC(=O)c3ccccc3)[C@]3(O)C[C@H](OC(=O)[C@H](O)[C@@H](NC(=O)c4ccccc4)c4ccccc4)C(C)=C1C3(C)C)[C@]1(OC(C)=O)CO[C@@H]1C[C@@H]2O [taxol],,,,,,,,,,,,,,,1.05 µg/mL,
CC1CCN(C(C)(C)C)C(=O)C1(Cl)Cl (stereo not shown) [Compound 9],> 250 µg/mL,> 250 µg/mL,242.9 ± 1.78 µg/mL,,> 250 µg/mL,fivefold,0.1%,,some selective cytotoxicity,,above 1.5,,,,,~0.7%
